In brackets after ≈: the same amount, converted by molar mass. Starred links: 1 amine or outer side, 2 acyl side, 3 side chain; linkers in the order of their positions; H or OH if unused. Positions of bridges follow the written chain, without caps; N, C: chain ends. Non-standard residues stand in square brackets, D forms with d. Residues, ends and D or L forms follow the SMILES beside them. Chains are numbered I, II in the order given. Actinocin(9to1) = Cc1c2oc3c(C)ccc(C(=O)[*:1])c3nc-2c(C(=O)[*:2])c(N)c1=O; NMeV = CN[C@H](C(=O)O)C(C)C; Orn = NCCC[C@H](N)C(=O)O; Sar = CNCC(=O)O
Tested on: Bacillus subtilis 168
Experiment: Determination of the minimum inhibiting agent concentration (MIC)
Assay type: cell-based
Details: B. subtilis 168, Belitsky Minimal Medium, 18-24 hrs at 37° C.
Description: The test substance may be an inhibiting agent. The concentration of inhibiting agent with which the bacterial culture is treated should preferably be in the range of 0.1× to 20× the minimum inhibiting agent concentration (MIC) for the test substance. The minimum inhibiting agent concentration is the minimum concentration of an antibiotic which inhibits the growth of a test germ over a period of 18-24 hours. The inhibiting agent concentration can therefore be determined according to standard microbiological procedures (see for example The-National Committee for Clinical Laboratory Standards. Methods for dilution antimicrobial susceptibility tests for bacteria that grow aerobically; approved standard-fifth edition. NCCLS document M7-A5 [ISBN 1-56238-394-9]. NCCLS, 940 West Valley Road, Suite 1400, Wayne, Pa. 19087-1898 USA, 2000.). The test spectra are recorded from a microbial culture that has been treated with the inhibiting agent in one, or preferably in several concentrations.
For the production of an overnight culture, 22 ml of Belitsky Minimal Medium (Stuhlke et al. (1993) Temporal activation of beta-glucauase synthesis in Bacillus subtilis is mediated by the GTP pool. J. Gen. Microbiol. 1993 Sep; 139 (pt 9):2041-5) was injected with an aliquot of the test germ Bacillus subtilis 168 from a permanent culture stored at −80° C., and incubated at 37° C. and 200 rpm.

First: N[C@@H]1CONC1=O [D-cycloserine]
Second: CC(C)C[C@@H]1NC(=O)[C@H](CCCN)NC(=O)[C@H](C(C)C)NC(=O)[C@@H]2CCCN2C(=O)[C@@H](Cc2ccccc2)NC(=O)[C@H](CC(C)C)NC(=O)[C@H](CCCN)NC(=O)[C@H](C(C)C)NC(=O)[C@@H]2CCCN2C(=O)[C@@H](Cc2ccccc2)NC1=O [gramicidin S] (cyclo(V[Orn]L[dF]PV[Orn]L[dF]P))
The MIC of the first is 64-fold higher: 64 µg/mL (≈ 627 µM) for the first, 1 µg/mL (≈ 0.876 µM) for the second.

Compared with `CN(C)[C@@H]1C(=O)C(C(N)=O)=C(O)[C@@]2(O)C(=O)C3=C(O)c4c(O)cccc4[C@@](C)(O)[C@H]3C[C@@H]12` [tetracyclin], gramicidin A is 4-fold lower in MIC: 16 µg/mL (≈ 36 µM) for the first, 4 µg/mL for the second.

enniatin and polymyxin B-sulfate are the same in MIC: 16 µg/mL for the first, 16 µg/mL for the second.

First: teichoplanin
Second: mersacidin
The MIC of the first is 130-fold lower: 0.125 µg/mL for the first, 16 µg/mL for the second.

Compared with ramoplanin, neomycin is 8-fold lower in MIC: 1 µg/mL for the first, 0.125 µg/mL for the second.

First: Cc1c2oc3c(C)ccc(C(=O)N[C@@H]4C(=O)N[C@H](C(C)C)C(=O)N5CCC[C@H]5C(=O)N(C)CC(=O)N(C)[C@@H](C(C)C)C(=O)O[C@@H]4C)c3nc-2c(C(=O)N[C@@H]2C(=O)N[C@H](C(C)C)C(=O)N3CCC[C@H]3C(=O)N(C)CC(=O)N(C)[C@@H](C(C)C)C(=O)O[C@@H]2C)c(N)c1=O [actinomycin D] (I: T[dV]P[Sar][NMeV] / II: T[dV]P[Sar][NMeV]; ester I:1-I:C, II:1-II:C; linker I:N-II:N via Actinocin(9to1))
Second: CC1(C)S[C@@H]2[C@H](NC(=O)Cc3ccccc3)C(=O)N2[C@H]1C(=O)O [penicillin G]
The MIC of the first is 4-fold lower: 1 µg/mL (≈ 0.797 µM) for the first, 4 µg/mL (≈ 12 µM) for the second.

Compared with `CC[n+]1c(-c2ccccc2)c2cc(N)ccc2c2ccc(N)cc21.[Br-]` [ethidiumbromid], ristocetin is 8-fold lower in MIC: 4 µg/mL for the first, 0.5 µg/mL for the second.

`CO[C@@]12[C@H](COC(N)=O)C3=C(C(=O)C(C)=C(N)C3=O)N1C[C@@H]1N[C@@H]12` [mitomycin C] and `O=c1[nH]c(=O)n([C@H]2C[C@H](O)[C@@H](CO)O2)cc1F` [5-fluor-2-desoxyuridine] are the same in MIC: 0.25 µg/mL (≈ 0.748 µM) for the first, 0.25 µg/mL (≈ 1.02 µM) for the second.

Compound gentamicin has an MIC of 0.125 µg/mL.

Same assay, conditions: Bacillus subtilis, 168

`CN[C@H](CC(C)C)C(=O)N[C@H]1C(=O)N[C@@H](CC(N)=O)C(=O)N[C@H]2C(=O)N[C@H]3C(=O)N[C@H](C(=O)N[C@H](C(=O)O)c4cc(O)cc(O)c4-c4cc3ccc4O)[C@H](O)c3ccc(c(Cl)c3)Oc3cc2cc(c3O[C@@H]2O[C@H](CO)[C@@H](O)[C@H](O)[C@H]2O[C@H]2C[C@](C)(N)[C@H](O)[C@H](C)O2)Oc2ccc(cc2Cl)[C@H]1O` [vancomycin] was tested, and the MIC was 0.25 µg/mL (≈ 0.173 µM).

Same assay, conditions: Bacillus subtilis; B. subtilis 168, Belitsky Minimal Medium, 18-24 hrs at 37° C.; read-out: MIC

Going from `CO[C@@H]1C[C@@H](C[C@H]2CC[C@H](C)[C@H]([C@@H](C)C(=O)O)O2)O[C@]2(O[C@](C)([C@H]3CC[C@@](C)([C@@H]4O[C@@H]([C@H]5O[C@@](O)(CO)[C@H](C)C[C@@H]5C)C[C@@H]4C)O3)C[C@H]2C)[C@@H]1C` [nigericin] to `CC[C@@]1([C@@H]2O[C@@H]([C@H]3O[C@@](O)(CO)[C@H](C)C[C@@H]3C)C[C@@H]2C)CC[C@H]([C@]2(C)CC[C@]3(C[C@H](O)[C@@H](C)[C@@H]([C@@H](C)[C@@H](OC)[C@H](C)C(=O)O)O3)O2)O1` [monensin], the MIC rises from 1 µg/mL (≈ 1.38 µM) to 4 µg/mL (≈ 5.96 µM) (4-fold).

First: CC[C@H]1OC(=O)[C@H](C)[C@@H](O[C@H]2C[C@@](C)(OC)[C@@H](O)[C@H](C)O2)[C@H](C)[C@@H](O[C@@H]2O[C@H](C)C[C@H](N(C)C)[C@H]2O)[C@](C)(O)C[C@@H](C)CN(C)[C@H](C)[C@@H](O)[C@]1(C)O [azithromycin]
Second: CC[C@H]1OC(=O)[C@H](C)[C@@H](O[C@H]2C[C@@](C)(OC)[C@@H](O)[C@H](C)O2)[C@H](C)[C@@H](O[C@@H]2O[C@H](C)C[C@H](N(C)C)[C@H]2O)[C@](C)(O)C[C@@H](C)C(=O)[C@H](C)[C@@H](O)[C@]1(C)O [erythromycin]
The MIC of the first is 2-fold higher: 1 µg/mL (≈ 1.34 µM) for the first, 0.5 µg/mL (≈ 0.681 µM) for the second.

First: CN[C@@H]1[C@H](O)[C@H](NC)[C@H]2O[C@@]3(O)C(=O)C[C@@H](C)O[C@H]3O[C@@H]2[C@H]1O [spectinomycin]
Second: [H]/N=C(/N)N[C@H]1[C@H](O)[C@@H](O)[C@H](O[C@@H]2O[C@@H](C)[C@](O)(C=O)[C@H]2O[C@@H]2O[C@@H](CO)[C@H](O)[C@@H](O)[C@@H]2NC)[C@@H](N/C(N)=N\[H])[C@@H]1O [streptomycin]
The MIC of the first is 8-fold lower: 16 µg/mL (≈ 48.1 µM) for the first, 128 µg/mL (≈ 220 µM) for the second.

First: CC[C@@H](C(=O)[C@@H](C)[C@@H](O)[C@H](C)CCc1ccc(C)c(O)c1C(=O)O)[C@H]1O[C@](CC)([C@H]2CC[C@](O)(CC)[C@H](C)O2)C[C@@H]1C [lasalocid]
Second: CC(=O)O[C@H]1C[C@@]2(C)[C@@H](C[C@@H](O)[C@H]3[C@@]4(C)CC[C@@H](O)[C@@H](C)[C@@H]4CC[C@@]32C)/C1=C(\CCC=C(C)C)C(=O)O [fusidic acid]
The MIC of the first is 2-fold higher: 1 µg/mL (≈ 1.69 µM) for the first, 0.5 µg/mL (≈ 0.968 µM) for the second.

First: NC[C@H]1O[C@H](O[C@H]2[C@H](O)[C@@H](O[C@H]3O[C@H](CO)[C@@H](O)[C@H](N)[C@H]3O)[C@H](N)C[C@@H]2N)[C@H](N)C[C@@H]1O [tobramycin]
Second: NC[C@H]1O[C@H](O[C@H]2[C@H](O)[C@@H](O[C@H]3O[C@H](CO)[C@@H](O)[C@H](N)[C@H]3O)[C@H](N)C[C@@H]2N)[C@H](O)[C@@H](O)[C@@H]1O [kanamycin]
The MIC of the first is 8-fold lower: 0.0625 µg/mL (≈ 0.134 µM) for the first, 0.5 µg/mL (≈ 1.03 µM) for the second.

Compared with `COc1cccc(OC)c1C(=O)N[C@@H]1C(=O)N2[C@@H]1SC(C)(C)[C@@H]2C(=O)O` [methicillin], `Cc1onc(-c2ccccc2)c1C(=O)N[C@@H]1C(=O)N2[C@@H]1SC(C)(C)[C@@H]2C(=O)O` [oxacillin] is 4-fold higher in MIC: 0.125 µg/mL (≈ 0.329 µM) for the first, 0.5 µg/mL (≈ 1.25 µM) for the second.

Going from `C/C(=C\C(=O)OCCCCCCCCC(=O)O)C[C@@H]1OC[C@H](C[C@@H]2O[C@H]2[C@@H](C)[C@H](C)O)[C@@H](O)[C@H]1O` [mupirocin] to `CCC[C@@H]1C[C@@H](C(=O)N[C@@H]([C@H]2O[C@H](SC)[C@H](O)[C@@H](O)[C@H]2O)[C@H](C)Cl)N(C)C1` [clindamycin], the MIC rises from 0.0625 µg/mL (≈ 0.125 µM) to 2 µg/mL (≈ 4.71 µM) (32-fold).

`O=C(N[C@H](CO)[C@H](O)c1ccc([N+](=O)[O-])cc1)C(Cl)Cl` [chloramphenicol] and `CO[C@@]1(NC(=O)C(C(=O)O)c2ccc(O)cc2)C(=O)N2C(C(=O)O)=C(CSc3nnnn3C)CO[C@@H]21` (some centres unmarked) [moxalactam] are the same in MIC: 4 µg/mL (≈ 12.4 µM) for the first, 4 µg/mL (≈ 7.69 µM) for the second.

Compared with `Nc1ccc2cc3ccc(N)cc3nc2c1` [proflavin], `COc1cc(Cc2cnc(N)nc2N)cc(OC)c1OC` [trimethoprim] is 16-fold lower in MIC: 8 µg/mL (≈ 38.2 µM) for the first, 0.5 µg/mL (≈ 1.72 µM) for the second.

Compared with `[N-]=[N+]=CC(=O)OC[C@H](N)C(=O)O` [azaserine], `CO[C@@]1(NC(=O)Cc2cccs2)C(=O)N2C(C(=O)O)=C(COC(N)=O)CS[C@@H]21` [cefoxitin] is 2-fold lower in MIC: 4 µg/mL (≈ 23.1 µM) for the first, 2 µg/mL (≈ 4.68 µM) for the second.

`COc1ccc(C[C@H](N)C(=O)N[C@H]2[C@@H](O)[C@H](n3cnc4c(N(C)C)ncnc43)O[C@@H]2CO)cc1` [puromycin] and `COc1cccc2c1C(=O)c1c(O)c3c(c(O)c1C2=O)C[C@@](O)(C(=O)CO)C[C@@H]3O[C@H]1C[C@H](N)[C@H](O)[C@H](C)O1` [doxorubicin] are the same in MIC: 8 µg/mL (≈ 17 µM) for the first, 8 µg/mL (≈ 14.7 µM) for the second.

First: O=c1[nH]cc(F)c(=O)[nH]1 [5-fluoro-uracile]
Second: O=C1CN(/N=C/c2ccc([N+](=O)[O-])o2)C(=O)N1 [nitrofurantoin]
The MIC of the first is 64-fold lower: 0.25 µg/mL (≈ 1.92 µM) for the first, 16 µg/mL (≈ 67.2 µM) for the second.

Compared with `CO[C@H]1/C=C/O[C@@]2(C)Oc3c(C)c(O)c4c(O)c(c(/C=N/N5CCN(C)CC5)c(O)c4c3C2=O)NC(=O)/C(C)=C\C=C\[C@H](C)[C@H](O)[C@@H](C)[C@@H](O)[C@@H](C)[C@H](OC(C)=O)[C@@H]1C` [rifampicin], `CO[C@@H]1[C@@H](OC(N)=O)[C@@H](O)[C@H](Oc2ccc3c(O)c(NC(=O)c4ccc(O)c(CC=C(C)C)c4)c(=O)oc3c2C)OC1(C)C` [novobiocin] is 8-fold higher in MIC: 0.25 µg/mL (≈ 0.304 µM) for the first, 2 µg/mL (≈ 3.26 µM) for the second.

First: C/C=C/C/C=C/CCC(=O)[C@H]1O[C@H]1C(N)=O [cerulenin]
Second: CCn1cc(C(=O)O)c(=O)c2ccc(C)nc21 [nalidixic acid]
The MIC of the first is 2-fold lower: 16 µg/mL (≈ 71.7 µM) for the first, 32 µg/mL (≈ 138 µM) for the second.

Work on `CC[C@H]1OC(=O)[C@H](C)[C@@H](O[C@H]2C[C@@](C)(OC)[C@@H](O)[C@H](C)O2)[C@H](C)[C@@H](O[C@@H]2O[C@H](C)C[C@H](N(C)C)[C@H]2O)[C@](C)(OC)C[C@@H](C)C(=O)[C@H](C)[C@@H](O)[C@]1(C)O` [clarithromycin] yielded an MIC of 0.0625 µg/mL (≈ 0.0836 µM).

Reference: patent US20050123917A1, “Method for characterising and/or identifying active mechanisms of antimicrobial test substances” (priority 2001, published 2005)
